# Assay results as given in article PMC6010916, “Safety and pharmacokinetics of veliparib extended‐release in patients with advanced solid tumors: a phase I study” (Cancer Medicine, 2018).
# Columns and labels:
# [1] = test system: ovarian and breast carcinoma; test: Objective tumor response (RECIST version 1.1); assay type: in vivo, human
# Protocol: Adverse event (AE) severity was assessed according to the National Cancer Institute Common Terminology Criteria for Adverse Events (NCI CTCAE) version 4.0. Tumor evaluations were performed at screening, every 8 weeks after the first administration of study drug, and at the final visit using radiographic measurements from computed tomography or magnetic resonance imaging. Objective tumor responses were evaluated using RECIST version 1.1 criteria. Patients who received one or more doses of veliparib were included in the PK and safety analyses, as well as for evaluation of time to disease progression (TTP). Patients with one or more measurable lesion at baseline were included in the analysis of objective responses.
# [2] = test system: non-small-cell lung cancer; triple-negative breast cancer; parameters: method as in earlier work; conditions: combined with carboplatin and paclitaxel; preliminary results; cited from earlier work
# [3] = 16 evaluable patients with breast carcinoma (all BRCA mutation carriers)
# [4] = 42 evaluable breast and ovarian carcinoma patients with deleterious BRCA mutations
# [5] = 44 evaluable patients with ovarian carcinoma
# [6] = Deleterious BRCA mutation, Breast (n = 16)
# [7] = Deleterious BRCA mutation, Ovarian (n = 26)
# [8] = Deleterious BRCA mutation, Overall (N = 42)
compound,measurement,setting,value
C[C@]1(c2nc3c(C(N)=O)cccc3[nH]2)CCCN1 [veliparib],confirmed partial responses,[1]; [3],25.0%
same,partial response (confirmed and unconfirmed),[1]; [3],62.5%
same,confirmed partial responses,[1]; 16 patients with breast carcinoma and deleterious BRCA mutations,25.0%
same,confirmed partial responses,[1]; 26 patients with ovarian carcinoma and deleterious BRCA mutations,11.5%
same,confirmed partial responses,[1]; [4],16.7%
same,partial response (confirmed and unconfirmed),[1]; [4],40.5%
same,confirmed partial responses,[1]; [5],11.4%
same,partial response (confirmed and unconfirmed),[1]; [5],27.3%
same,confirmed overall ORR,[1]; 60 evaluable patients,15%
same,overall (confirmed and unconfirmed) ORR,[1]; 60 evaluable patients,36.7%
same,"CR, confirmed",[1]; Breast (n = 16),0 n (%)
same,"ORR (CR + PR), confirmed",[1]; Breast (n = 16),4 (25.0)— n/N (%) (95% CI)
same,"PR, confirmed",[1]; Breast (n = 16),4 (25.0) n (%)
same,"CR, confirmed",[1]; [6],0 n (%)
same,"ORR (CR + PR), confirmed",[1]; [6],4 (25.0) n/N (%)
same,"PR, confirmed",[1]; [6],4 (25.0) n (%)
same,"CR, confirmed",[1]; [7],0 n (%)
same,"ORR (CR + PR), confirmed",[1]; [7],3 (11.5) n/N (%)
same,"PR, confirmed",[1]; [7],3 (11.5) n (%)
same,"CR, confirmed",[1]; [8],0 n (%)
same,"PR, confirmed",[1]; [8],7 (16.7) n (%)
same,"CR, confirmed",[1]; Ovarian (n = 44),0 n (%)
same,"PR, confirmed",[1]; Ovarian (n = 44),5 (11.4) n (%)
same,"ORR (CR + PR), confirmed","[1]; Ovarian (n = 44), measurable lesion at baseline",5 (11.4)— n/N (%) (95% CI)
same,"CR, confirmed",[1]; Overall (N = 60),0 n (%)
same,"PR, confirmed",[1]; Overall (N = 60),9 (15.0) n (%)
same,"partial response (two confirmed, two unconfirmed)","[1]; nine patients with unknown BRCA status and measurable disease, all ovarian carcinoma",44.4%
same,objective responses,[1]; ovarian carcinoma patients with no BRCA mutation,No confirmed and one unconfirmed objective responses
same,primary endpoints (overall survival or complete pathologic response),[2],did not meet their primary endpoints
